According to patent US9505780B2, “Thienopyranones as kinase and epigenetic inhibitors” (SignalRx Pharmaceuticals, Inc., priority 2014, dated 2016):

Key:
[1] = tested on: SKNBE (2) cells; assay: Western blot of p-AKT and N-MYC in SKNBE(2) cells; format: cell-based, human; details: 24 hrs treatment, IGF stimulated
Experimental: Cells were stimulated with 50 ng/ml IGF for 30 min and used for lysate preparation. Proteins were quantitated by the BCA protein assay (Pierce). Equal amounts of protein were resolved by polyacrylamide gels, transferred to nitrocellulose membrane and probed by Western blot with the following primary antibodies: p-AKT(Ser473), API (Cell Signaling Technologies), N-MYC, CyclinD1 and β-actin (Santa Cruz Biotechnology).

[2] = molecular target: BRD4 (Homo sapiens, UniProt O60885); assay: BRD4 inhibition assay (region not distinguished); format: biochemical; details: for BRD4 inhibition: BRD4 regions 1 and 2
[3] = molecular target: BRD4-2 (Homo sapiens (Human), UniProt O60885); assay: BRD4 region 2 (BRD4-2) inhibition; format: biochemical
[4] = molecular target: PI3Kγ (Homo sapiens (Human), UniProt P48736); assay: PI3K gamma isoform inhibition; format: biochemical
PI3Kγ, sequence (P48736 whole entry, canonical isoform): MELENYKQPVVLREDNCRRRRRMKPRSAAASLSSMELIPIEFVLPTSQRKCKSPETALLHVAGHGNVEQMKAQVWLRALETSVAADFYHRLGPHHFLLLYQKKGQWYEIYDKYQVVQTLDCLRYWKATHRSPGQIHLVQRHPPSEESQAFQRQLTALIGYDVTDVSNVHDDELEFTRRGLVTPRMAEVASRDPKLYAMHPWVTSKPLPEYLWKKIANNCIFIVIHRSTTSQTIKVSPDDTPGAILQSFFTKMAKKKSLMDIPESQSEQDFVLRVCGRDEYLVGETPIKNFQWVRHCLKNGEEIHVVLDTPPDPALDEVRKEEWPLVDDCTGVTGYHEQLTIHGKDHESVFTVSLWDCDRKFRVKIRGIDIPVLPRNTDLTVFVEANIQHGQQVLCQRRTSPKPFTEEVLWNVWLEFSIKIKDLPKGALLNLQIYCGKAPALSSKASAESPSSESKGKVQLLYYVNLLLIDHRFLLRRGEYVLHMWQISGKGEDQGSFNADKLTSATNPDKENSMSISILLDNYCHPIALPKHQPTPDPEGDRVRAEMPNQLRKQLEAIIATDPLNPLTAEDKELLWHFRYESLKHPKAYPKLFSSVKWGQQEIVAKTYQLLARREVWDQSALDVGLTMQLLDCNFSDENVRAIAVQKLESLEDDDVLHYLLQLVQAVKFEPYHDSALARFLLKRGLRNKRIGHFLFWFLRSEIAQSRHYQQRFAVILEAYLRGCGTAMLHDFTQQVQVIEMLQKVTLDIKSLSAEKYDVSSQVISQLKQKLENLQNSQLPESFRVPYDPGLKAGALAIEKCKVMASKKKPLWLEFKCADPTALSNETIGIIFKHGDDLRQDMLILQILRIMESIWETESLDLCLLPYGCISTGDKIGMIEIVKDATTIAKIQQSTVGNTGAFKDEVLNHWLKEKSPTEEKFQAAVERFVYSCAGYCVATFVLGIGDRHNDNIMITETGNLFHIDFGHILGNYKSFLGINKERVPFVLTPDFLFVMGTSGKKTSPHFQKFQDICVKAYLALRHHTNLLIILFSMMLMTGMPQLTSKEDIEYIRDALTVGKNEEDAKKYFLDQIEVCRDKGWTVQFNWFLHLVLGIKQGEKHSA

[5] = molecular target: PI3Kβ (Homo sapiens (Human), UniProt P42338); assay: PI3K beta isoform inhibition; format: biochemical
PI3Kβ, sequence (P42338 whole entry, canonical isoform): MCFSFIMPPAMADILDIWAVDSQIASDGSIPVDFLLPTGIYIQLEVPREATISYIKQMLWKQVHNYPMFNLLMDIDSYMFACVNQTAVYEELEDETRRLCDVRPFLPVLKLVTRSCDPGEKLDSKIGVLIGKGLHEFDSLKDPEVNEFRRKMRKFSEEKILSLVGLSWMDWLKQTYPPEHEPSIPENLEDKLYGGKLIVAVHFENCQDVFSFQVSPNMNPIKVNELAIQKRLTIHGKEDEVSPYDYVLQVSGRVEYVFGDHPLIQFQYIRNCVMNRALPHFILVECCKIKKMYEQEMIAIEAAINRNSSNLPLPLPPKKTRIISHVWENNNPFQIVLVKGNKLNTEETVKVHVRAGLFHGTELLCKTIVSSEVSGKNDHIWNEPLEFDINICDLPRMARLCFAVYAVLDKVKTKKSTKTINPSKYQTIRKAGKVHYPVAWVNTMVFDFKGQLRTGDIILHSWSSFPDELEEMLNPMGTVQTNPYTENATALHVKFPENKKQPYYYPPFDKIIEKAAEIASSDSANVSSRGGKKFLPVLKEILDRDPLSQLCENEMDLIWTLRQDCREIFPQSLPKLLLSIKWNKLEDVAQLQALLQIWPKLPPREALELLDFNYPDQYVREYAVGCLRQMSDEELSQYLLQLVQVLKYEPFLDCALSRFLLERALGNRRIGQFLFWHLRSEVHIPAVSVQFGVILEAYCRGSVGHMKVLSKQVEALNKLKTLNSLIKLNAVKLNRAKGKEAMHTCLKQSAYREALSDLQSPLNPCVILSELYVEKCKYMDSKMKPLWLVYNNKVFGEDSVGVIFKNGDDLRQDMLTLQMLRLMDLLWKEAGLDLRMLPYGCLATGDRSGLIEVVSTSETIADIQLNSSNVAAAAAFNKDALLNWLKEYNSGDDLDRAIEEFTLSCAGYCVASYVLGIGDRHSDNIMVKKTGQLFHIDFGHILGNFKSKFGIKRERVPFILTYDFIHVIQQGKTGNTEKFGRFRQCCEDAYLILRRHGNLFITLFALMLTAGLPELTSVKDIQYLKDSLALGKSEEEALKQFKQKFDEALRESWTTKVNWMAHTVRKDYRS
PI3Kβ, sequence (P27986 whole entry partner, canonical isoform): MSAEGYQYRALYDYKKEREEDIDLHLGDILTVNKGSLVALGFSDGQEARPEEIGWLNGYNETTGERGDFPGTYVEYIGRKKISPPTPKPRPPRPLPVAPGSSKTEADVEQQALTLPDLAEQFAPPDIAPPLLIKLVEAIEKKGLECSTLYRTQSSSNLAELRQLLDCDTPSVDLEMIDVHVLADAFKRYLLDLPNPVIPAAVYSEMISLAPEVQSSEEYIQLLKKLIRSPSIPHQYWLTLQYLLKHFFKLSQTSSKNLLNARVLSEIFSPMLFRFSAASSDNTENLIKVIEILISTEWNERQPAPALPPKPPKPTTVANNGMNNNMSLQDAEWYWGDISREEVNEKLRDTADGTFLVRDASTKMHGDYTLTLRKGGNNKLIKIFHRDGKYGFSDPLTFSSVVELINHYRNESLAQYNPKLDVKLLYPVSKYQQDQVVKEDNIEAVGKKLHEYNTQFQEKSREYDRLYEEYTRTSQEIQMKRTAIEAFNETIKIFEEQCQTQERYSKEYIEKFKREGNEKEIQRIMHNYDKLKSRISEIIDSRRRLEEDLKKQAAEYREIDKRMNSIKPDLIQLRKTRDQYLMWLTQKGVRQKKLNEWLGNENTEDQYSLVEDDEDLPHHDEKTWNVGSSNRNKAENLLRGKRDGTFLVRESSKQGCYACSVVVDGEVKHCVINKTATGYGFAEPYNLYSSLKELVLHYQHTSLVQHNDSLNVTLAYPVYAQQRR

[6] = molecular target: PI3Kδ (Homo sapiens (Human), UniProt O00329); assay: PI3K delta isoform inhibition; format: biochemical
PI3Kδ, sequence (O00329 whole entry, canonical isoform): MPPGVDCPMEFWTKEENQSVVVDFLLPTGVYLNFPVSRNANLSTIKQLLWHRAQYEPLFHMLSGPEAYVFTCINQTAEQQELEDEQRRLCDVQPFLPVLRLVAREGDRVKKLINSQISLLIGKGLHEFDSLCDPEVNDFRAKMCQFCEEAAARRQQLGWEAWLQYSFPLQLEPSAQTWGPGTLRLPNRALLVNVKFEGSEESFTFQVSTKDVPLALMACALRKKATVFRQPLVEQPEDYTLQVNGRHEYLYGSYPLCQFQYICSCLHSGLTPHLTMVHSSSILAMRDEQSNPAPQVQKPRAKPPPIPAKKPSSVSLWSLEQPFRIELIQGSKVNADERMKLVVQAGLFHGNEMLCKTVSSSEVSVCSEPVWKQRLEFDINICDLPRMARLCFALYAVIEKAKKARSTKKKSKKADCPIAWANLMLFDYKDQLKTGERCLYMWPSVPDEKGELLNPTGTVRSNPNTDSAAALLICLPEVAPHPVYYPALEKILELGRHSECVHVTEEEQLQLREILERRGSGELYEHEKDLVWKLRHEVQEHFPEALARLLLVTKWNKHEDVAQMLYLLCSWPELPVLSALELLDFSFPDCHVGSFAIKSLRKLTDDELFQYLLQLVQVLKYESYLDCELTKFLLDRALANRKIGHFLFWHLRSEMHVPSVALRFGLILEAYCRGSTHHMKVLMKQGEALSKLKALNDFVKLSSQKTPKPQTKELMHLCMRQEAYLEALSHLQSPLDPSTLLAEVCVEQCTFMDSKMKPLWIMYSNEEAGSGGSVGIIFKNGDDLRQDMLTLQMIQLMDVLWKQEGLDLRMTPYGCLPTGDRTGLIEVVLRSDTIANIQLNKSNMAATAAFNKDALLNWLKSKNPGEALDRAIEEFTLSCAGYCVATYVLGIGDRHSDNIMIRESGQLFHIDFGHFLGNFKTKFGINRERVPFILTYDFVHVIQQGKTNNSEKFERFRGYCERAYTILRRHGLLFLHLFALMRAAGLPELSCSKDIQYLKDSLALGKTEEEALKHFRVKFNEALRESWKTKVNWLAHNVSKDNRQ
PI3Kδ, sequence (P27986 whole entry partner, canonical isoform): as the sequence (P27986 whole entry partner, canonical isoform) above
Source text: Inhibitory activity can be determined routinely using known methods and also front commercial vendors offering this service for kinases and bromodomain proteins. […] In vivo, PI3K inhibition can be determined from target tissue biopsies by standard tissue processing to disrupt cells and then performing Western Blot analysis to determine the presence or absence of pAKT (substrate of PI3K) relative to a control sample. The activity of a compound of the invention as an inhibitor of a bromodomain-containing protein, such as a BET protein, such as BRD2, BRD3, BRD4, and/or BRDT, or an isoform or mutant thereof may be determined in vitro, in vivo, or in a cell line. In vitro assays include assays that determine inhibition of bromodomain-containing proteins. Alternatively, inhibitor binding may be determined by running a competition experiment where a provided compound is incubated with a bromodomain-containing protein, such as a BET protein bound to known ligands, labeled or unlabeled. For example, bromodomain inhibition can be determined in vitro using Alpha Screen Technology (http://www.reactionbiology.com/webapps/site/NewsPDFs/Bromodomain%20Assay%20Platform%20for%20Drug%/20Screening%20and%20Discovery.pdf). In vivo bromodomain inhibition can be determined indirectly by evaluating the amount of protect present of proteins whose genes' transcription is influenced or controlled by the bromodomain protein, for example, the MYCN protein transcription is controlled by BRD4 (J. E. Delmore et al., Cell 2011, 146, 904-917; A. Puissant, Cancer Discov. 2013, 3, 308-323). Bromodomain inhibition may also be predicted by in silico modeling as described below in the Examples.
Several TP Scaffold compounds (structures shown in FIG. 2 and Table 3) were tested for inhibition activity against isoforms of PI3K (alpha, beta, gamma, and delta isoforms) and the bromodomain protein BRD4 at regions 1 (BRD4-1) and 2 (BRD4-2).

[7] = molecular target: BRD4-1 (Homo sapiens (Human), UniProt O60885); assay: BRD4 region 1 (BRD4-1) inhibition; format: biochemical
[8] = molecular target: PI3Kα (Homo sapiens (Human), UniProt P42336); assay: PI3K alpha isoform inhibition; format: biochemical
PI3Kα, sequence (P42336 whole entry, canonical isoform): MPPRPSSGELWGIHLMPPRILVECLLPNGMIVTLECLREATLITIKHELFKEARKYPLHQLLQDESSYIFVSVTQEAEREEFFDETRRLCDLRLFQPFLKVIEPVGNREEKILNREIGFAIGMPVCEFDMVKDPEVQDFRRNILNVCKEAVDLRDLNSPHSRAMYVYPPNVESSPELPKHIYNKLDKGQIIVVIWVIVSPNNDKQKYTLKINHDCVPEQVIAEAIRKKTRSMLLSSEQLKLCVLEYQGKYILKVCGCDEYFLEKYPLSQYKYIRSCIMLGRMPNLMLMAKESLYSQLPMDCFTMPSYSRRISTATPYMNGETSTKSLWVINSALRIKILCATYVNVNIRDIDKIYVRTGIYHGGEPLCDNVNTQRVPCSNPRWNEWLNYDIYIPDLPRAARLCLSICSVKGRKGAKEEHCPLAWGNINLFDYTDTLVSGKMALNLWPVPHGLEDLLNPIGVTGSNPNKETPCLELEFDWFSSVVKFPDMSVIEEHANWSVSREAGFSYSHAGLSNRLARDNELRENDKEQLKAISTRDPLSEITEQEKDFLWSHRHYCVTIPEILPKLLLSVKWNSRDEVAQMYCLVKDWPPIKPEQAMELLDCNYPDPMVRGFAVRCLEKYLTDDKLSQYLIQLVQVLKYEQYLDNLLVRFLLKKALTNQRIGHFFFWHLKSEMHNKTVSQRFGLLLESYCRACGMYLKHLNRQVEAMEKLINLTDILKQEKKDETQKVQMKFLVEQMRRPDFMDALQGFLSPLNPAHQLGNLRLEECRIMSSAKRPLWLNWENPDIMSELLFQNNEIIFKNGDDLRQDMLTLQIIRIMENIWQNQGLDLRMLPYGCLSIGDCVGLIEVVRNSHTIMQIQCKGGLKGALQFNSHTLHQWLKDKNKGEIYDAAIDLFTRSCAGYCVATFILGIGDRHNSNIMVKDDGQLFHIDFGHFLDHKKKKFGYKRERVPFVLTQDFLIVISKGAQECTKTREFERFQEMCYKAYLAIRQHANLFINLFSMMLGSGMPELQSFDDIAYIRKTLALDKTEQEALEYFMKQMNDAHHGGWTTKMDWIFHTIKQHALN
PI3Kα, sequence (P27986 whole entry partner, canonical isoform): as the sequence (P27986 whole entry partner, canonical isoform) above

[9] = tested on: HDAC; assay: HDAC inhibitory activity, commercially available kit; format: biochemical; details: for HDAC inhibitory activity: 1, 10, 50 μM
[10] = tested on: PI-3 kinases; details: cited from earlier work
[11] = tested on: MYCN amplified SKNBE(2) cells; assay: Brd4 chromatin precipitation, quantitative PCR of MYCN promoter region; format: cell-based, human; details: 24 hours exposure
Experimental: MYCN amplified SKNBE(2) cells were exposed to inhibitors for 24 hours then chromatin was precipitated with Brd4 (rabbit polyclonal antibody) along with rabbit IgG as a negative control (IgG). Precipitated chromatin was analyzed for the MYCN gene (2 sites within the MYCN promoter region) by quantitative PCR and enrichment is shown as the percentage of total input DNA (FIG. 4). The negative control region primers amplify within a gene desert region approximately 1 Mb away from MYCN (MYC-N NR). Error bars represent ±SEM of triplicate data. P<0.05 as compared to positive control (paired t-test). Positive control: No inhibitor; IP with BRD4 antibody, Negative Control: No inhibitor, IP with rabbit IgG.

[12] = tested on: breast cancer stem cells; details: decreased from 11%; tumors with high HER2; cited from earlier work

SMILES | IC50 [3] [nM] | IC50 [4] [nM] | IC50 [6] [nM] | IC50 [7] [nM] | IC50 [8] [nM] | other results
Cn1c(=O)n(-c2ccc(C(C)(C)C#N)cc2)c2c3cc(-c4cnc5ccccc5c4)ccc3ncc21 [BEZ235] |  |  |  |  |  | pAKT, Western blot [1]: decreased pAKT
Nc1cc(C(F)(F)F)c(-c2cc(N3CCOCC3)nc(N3CCOCC3)n2)cn1 [BKM120] |  |  |  |  |  | BRD4 inhibition [2]: no BRD4 inhibition; pAKT, Western blot [1]: decreased pAKT
CC[C@H](Nc1ncnc2[nH]cnc12)c1nc2cccc(F)c2c(=O)n1-c1ccccc1 [CAL101] |  |  |  |  |  | IC50 [2]: > 50000 nM; BRD4 inhibition [2]: no BRD4 inhibition; pAKT, Western blot [1]: decreased pAKT
O=c1cc(N2CCOCC2)oc2c(-c3ccccc3)csc12 [Cmpd 6] | 3450 | 1570 | 784 | 2170 |  | IC50 [5]: 378 nM
O=c1cc(N2CCOCC2)oc2ccsc12 [Cmpd 10] | > 50000 | > 50000 | > 50000 | > 50000 | 7160 | IC50 [5]: 9250 nM
O=C(O)c1ccc(-c2csc3c(=O)cc(N4CCOCC4)oc23)cc1 [Cmpd 100] | 2760 | 259 | 295 | 1090 | 55.2 | 
O=C(Nc1ccc(-c2csc3c(=O)cc(N4CCOCC4)oc23)cc1)c1ccc(F)c(F)c1Nc1ccc(I)cc1F [Cmpd 121] | 2310 |  |  | 255 | < 10000 | 
CC(C)(C)c1cc(NC(=O)Nc2cccc(-c3csc4c(=O)cc(N5CCOCC5)oc34)c2)no1 [Cmpd 122, 1-(5-tert-Butyl-isoxazol-3-yl)-3-[3-(5-morpholin-4-yl-7-oxo-7H-thieno[3,2-b]pyran-3-yl)-phenyl]-urea] | 4880 | 8650 | 1350 | 2570 | 950 | 
O=C(Nc1cccc(-c2csc3c(=O)cc(N4CCOCC4)oc23)c1)Nc1ccc(Cl)c(C(F)(F)F)c1 [Cmpd 123, 1-(4-Chloro-3-trifluoromethyl-phenyl)-3-[3-(5-morpholin-4-yl-7-oxo-7H-thieno[3,2-b]pyran-3-yl)-phenyl]-urea] | > 50000 | > 16700 | 9750 | > 50000 | 7670 | 
O=c1cc(N2CCSCC2)oc2c(-c3ccc4c(c3)OCCO4)csc12 [Cmpd 124, 3-(2,3-Dihydrobenzo[b][1,4]dioxan-6-yl)-5-thiomorpholino-7H-thieno[3,2-b]pyran-7-one] | 2800 | 4630 | 480 | 519 | 1580 | 
O=c1cc(N2CCOCC2)oc2c(Br)csc12 [Cmpd 126, 3-Bromo-5-morpholin-4-yl-thieno[3,2-b]pyran-7-one] | > 50000 | 2200 | 1480 | > 50000 |  | 
O=c1cc(N2CCSCC2)oc2c(Br)csc12 [Cmpd 127, 3-Bromo-5-thiomorpholino-7H-thieno[3,2-b]pyran-7-one] | 34200 | 9770 | 3300 | 32600 | 1720 | 
O=c1cc(N2CCOCC2)oc2c(C#Cc3ccccc3)csc12 [Cmpd 128] | 10700 |  |  | 4000 |  | 
O=c1cc(N2CCOCC2)oc2c(-c3ccn[nH]3)csc12 [Cmpd 129, 5-Morpholino-3-(2H-pyrazol-3-yl)-4-oxa-1-thia-7-Indenone] | 9410 |  |  | 2230 |  | 
O=c1cc(N2CCOCC2)oc2c(-c3ccccc3)cccc12 [LY294002, 2-(4-morpholinyl)-8-phenyl-4H-1-benzopyran-4-one] | 13100 |  | 3220 | 5330 |  | MYCN protein quantity, Western blot [1]: decreased; pAKT, Western blot [1]: decreased; IC50 [10]: 1400 nM; MYCN expression (Brd4 ChIP, MYCN promoter) [11]: significantly repressed MYCN expression
O=c1cc(N2CCNCC2)oc2c(-c3ccccc3)cccc12 [LY303511] |  |  |  |  |  | MYCN protein quantity, Western blot [1]: inhibited only MYCN quantities; MYCN expression (Brd4 ChIP, MYCN promoter) [11]: significantly repressed MYCN expression
CS(=O)(=O)CCNCc1ccc(-c2ccc3ncnc(Nc4ccc(OCc5cccc(F)c5)c(Cl)c4)c3c2)o1 [Lapatinib] |  |  |  |  |  | breast cancer stem cells, % of cells after treatment [12]: 5%

Second part, led by results:

IC50 [3] [nM] | IC50 [4] [nM] | IC50 [6] [nM] | IC50 [7] [nM] | IC50 [8] [nM] | SMILES | other results
1740 | 6300 | 9810 | 843 |  | Nc1cccc(-c2csc3c(=O)cc(N4CCOCC4)oc23)c1 [Cmpd 11, 3-(3-Amino-phenyl)-5-morpholin-4-yl-thieno[3,2-b]pyran-7-one] | 
628 | 1170 | 27 | 277 |  | CCOC(=O)c1ccc(-c2csc3c(=O)cc(N4CCOCC4)oc23)cc1 [Cmpd 25] | IC50 [5]: 1750 nM
1470 | 547 | 12 | 811 |  | COC(=O)c1ccc(-c2csc3c(=O)cc(N4CCOCC4)oc23)cc1 [Cmpd 44, methyl 4-(5-morpholino-7-oxo-7H-thieno[3,2-b]pyran-3-yl)benzoate] | BRD4 inhibition [2]: showed activity; IC50 [5]: 3600 nM; HDAC inhibitory activity [9]: No inhibitor activity
235 | 806 | 53 | 193 | 90 | O=C(NO)c1ccc(-c2csc3c(=O)cc(N4CCOCC4)oc23)cc1 [Cmpd 118] | HDAC activity inhibited versus control ([9]; 1 μM): 17%; HDAC activity inhibited versus control ([9]; 10 μM): 25%; HDAC activity inhibited versus control ([9]; 50 μM): 41%; HDAC inhibitory activity [9]: significant HDAC inhibitory activity
393 | 556 | 21 | 326 | 95 | O=C(Nc1ccc(-c2csc3c(=O)cc(N4CCOCC4)oc23)cc1)c1ccncc1 [Cmpd 120] | 
695 |  |  | 349 |  | Cn1ncc2ccc(-c3csc4c(=O)cc(N5CCOCC5)oc34)cc21 [Cmpd 130, 3-(1-Methyl-1H-indazol-6-yl)-5-morpholino-4-oxa-1-thia-7-Indenone] | 
446 |  |  | 231 |  | Cc1n[nH]c2cc(-c3csc4c(=O)cc(N5CCOCC5)oc34)ccc12 [Cmpd 131, 3-(3-Methyl-1H-indazol-6-yl)-5-morpholino-4-oxa-1-thia-7-Indenone] | 
1120 |  |  | 558 |  | CNC(=O)Nc1cccc(-c2csc3c(=O)cc(N4CCOCC4)oc23)c1 [Cmpd 133, 3-[m-(3-Methylureido)phenyl]-5-morpholino-4-oxa-1-thia-7-indenone] | 
1850 |  |  | 662 |  | CN(C)C(=O)Nc1cccc(-c2csc3c(=O)cc(N4CCOCC4)oc23)c1 [Cmpd 134, 3-[m-(3-Dimethylureido)phenyl]-5-morpholino-4-oxa-1-thia-7-indenone] | 
1270 |  |  | 646 |  | Cc1cccc(NC(=O)Nc2cccc(-c3csc4c(=O)cc(N5CCOCC5)oc34)c2)c1 [Cmpd 135, 5-Morpholino-3-{m-[3-(m-tolyl)ureido]phenyl}-4-oxa-1-thia-7-indenone] | 
1260 |  |  | 6150 |  | O=C(Nc1cccc(-c2csc3c(=O)cc(N4CCOCC4)oc23)c1)Nc1cccc(C(F)(F)F)c1 [Cmpd 136] | 
1260 |  |  | 748 |  | Cc1ccc(C)c(NC(=O)Nc2cccc(-c3csc4c(=O)cc(N5CCOCC5)oc34)c2)c1 [Cmpd 137, 5-Morpholino-3-{m-[3-(2,5-xylyl)ureido]phenyl}-4-oxa-1-thia-7-indenone] | 
